Data taken from PubChem BioAssay (NCI).
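Interpolation was linear, between the two tested concentrations surrounding the appropriate level; five concentrations were tested over 48 hours in 96-well plates. At the TGI there is no net growth.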

Experiments:
Assay in all cases: NCI-60 cell line screen, 48 h
786-0 renal = system: 786-0 renal
A498 renal = system: A498 renal
A549 NSCLC = system: A549 NSCLC
ACHN renal = system: ACHN renal
BT-549 breast = system: BT-549 breast
CAKI-1 renal = system: CAKI-1 renal
CCRF-CEM leukemia = system: CCRF-CEM leukemia
COLO 205 colon = system: COLO 205 colon
DU-145 prostate = system: DU-145 prostate
EKVX NSCLC = system: EKVX NSCLC
HCC-2998 colon = system: HCC-2998 colon
HCT-116 colon = system: HCT-116 colon
HCT-15 colon = system: HCT-15 colon
HL-60(TB) leukemia = system: HL-60(TB) leukemia
HOP-62 NSCLC = system: HOP-62 NSCLC
HOP-92 NSCLC = system: HOP-92 NSCLC
HS 578T breast = system: HS 578T breast
HT29 colon = system: HT29 colon
K-562 leukemia = system: K-562 leukemia
KM12 colon = system: KM12 colon
LOX IMVI melanoma = system: LOX IMVI melanoma
M14 melanoma = system: M14 melanoma
MALME-3M melanoma = system: MALME-3M melanoma
MCF7 breast = system: MCF7 breast
MDA-MB-231 breast = system: MDA-MB-231 breast
MDA-MB-435 = system: MDA-MB-435
MDA-N = system: MDA-N
MOLT-4 leukemia = system: MOLT-4 leukemia
NCI-H226 lung = system: NCI-H226 lung
NCI-H23 lung = system: NCI-H23 lung
NCI-H460 lung = system: NCI-H460 lung
NCI-H522 lung = system: NCI-H522 lung
NCI/ADR-RES ovarian = system: NCI/ADR-RES ovarian
OVCAR-3 ovarian = system: OVCAR-3 ovarian
OVCAR-4 ovarian = system: OVCAR-4 ovarian
OVCAR-5 ovarian = system: OVCAR-5 ovarian
OVCAR-8 ovarian = system: OVCAR-8 ovarian
PC-3 prostate = system: PC-3 prostate
RPMI-8226 leukemia = system: RPMI-8226 leukemia
SF-268 CNS = system: SF-268 CNS
SF-295 CNS = system: SF-295 CNS
SF-539 CNS = system: SF-539 CNS
SK-MEL-2 melanoma = system: SK-MEL-2 melanoma
SK-MEL-28 melanoma = system: SK-MEL-28 melanoma
SK-MEL-5 melanoma = system: SK-MEL-5 melanoma
SK-OV-3 ovarian = system: SK-OV-3 ovarian
SN12C renal = system: SN12C renal
SNB-19 CNS = system: SNB-19 CNS
SNB-75 CNS = system: SNB-75 CNS
SR leukemia = system: SR leukemia
SW-620 colon = system: SW-620 colon
TK-10 renal = system: TK-10 renal
U251 CNS = system: U251 CNS
UACC-257 melanoma = system: UACC-257 melanoma
UACC-62 melanoma = system: UACC-62 melanoma
UO-31 renal = system: UO-31 renal

CC1(F)C=CC(=O)C=C1
TGI (786-0 renal): 35 µM | TGI (A498 renal): > 100 µM | TGI (A549 NSCLC): > 100 µM | TGI (ACHN renal): > 100 µM | TGI (BT-549 breast): > 100 µM | TGI (CAKI-1 renal): > 100 µM | TGI (CCRF-CEM leukemia): > 100 µM | TGI (COLO 205 colon): > 100 µM | TGI (DU-145 prostate): > 100 µM | TGI (EKVX NSCLC): > 100 µM | TGI (HCC-2998 colon): > 100 µM | TGI (HCT-116 colon): > 100 µM | TGI (HCT-15 colon): 45.7 µM | TGI (HL-60(TB) leukemia): 93.1 µM | TGI (HOP-62 NSCLC): > 100 µM | TGI (HOP-92 NSCLC): 72.1 µM | TGI (HS 578T breast): > 100 µM | TGI (HT29 colon): > 100 µM | TGI (K-562 leukemia): > 100 µM | TGI (KM12 colon): > 100 µM | TGI (LOX IMVI melanoma): 31.4 µM | TGI (M14 melanoma): > 100 µM | TGI (MALME-3M melanoma): 68.9 µM | TGI (MCF7 breast): > 100 µM | TGI (MDA-MB-231 breast): > 100 µM | TGI (MDA-MB-435): > 100 µM | TGI (MDA-N): > 100 µM | TGI (MOLT-4 leukemia): > 100 µM | TGI (NCI-H226 lung): > 100 µM | TGI (NCI-H23 lung): > 100 µM | TGI (NCI-H460 lung): > 100 µM | TGI (NCI-H522 lung): > 100 µM | TGI (NCI/ADR-RES ovarian): 34.8 µM | TGI (OVCAR-3 ovarian): > 100 µM | TGI (OVCAR-4 ovarian): > 100 µM | TGI (OVCAR-5 ovarian): > 100 µM | TGI (OVCAR-8 ovarian): 42.7 µM | TGI (PC-3 prostate): > 100 µM | TGI (RPMI-8226 leukemia): > 100 µM | TGI (SF-268 CNS): > 100 µM | TGI (SF-295 CNS): > 100 µM | TGI (SF-539 CNS): > 100 µM | TGI (SK-MEL-2 melanoma): > 100 µM | TGI (SK-MEL-28 melanoma): > 100 µM | TGI (SK-MEL-5 melanoma): > 100 µM | TGI (SK-OV-3 ovarian): > 100 µM | TGI (SN12C renal): > 100 µM | TGI (SNB-19 CNS): > 100 µM | TGI (SNB-75 CNS): > 100 µM | TGI (SR leukemia): > 100 µM | TGI (SW-620 colon): 42.3 µM | TGI (TK-10 renal): > 100 µM | TGI (U251 CNS): > 100 µM | TGI (UACC-257 melanoma): > 100 µM | TGI (UACC-62 melanoma): > 100 µM | TGI (UO-31 renal): > 100 µM
